Reference: PMC5590075, “Synthesis, Antimicrobial, and Antioxidant Activities of Chalcogen-Containing Nitrone Derivatives from (R)-citronellal” (Medicines, 2017)
Values after ≈ are worked out from the molar mass of the structure shown. Read-outs that look alike come from different tables or passages of the source.

Experiments:
Type in all cases: cell-based
all the tested bacteria = assay: MIC and MBC, macro dilution tube method, summary over the panel; conditions: read-out: MIC and MBC values
Text: (§1) To evaluate the antimicrobial potential of the synthesized compounds, the following reference strains of bacteria, that are economically important in foods, were employed: Gram-positive Listeria monocytogenes ATCC 7644, Staphylococcus aureus ATCC 25923, and Bacillus cereus ATCC 11778; Gram-negative Salmonella Typhimurium ATCC 14028, Escherichia coli O157: H7 NCTC 12900 and the clinically important Pseudomonas aeruginosa ATCC 15442.
(§2) The antimicrobial activity assay using the disk diffusion test was realized using the methodology that is recommended by the Clinical Laboratory Standards Institute (CLSI). The determination of the minimum inhibitory concentration (MIC) and minimum bactericidal concentration (MBC) was performed using the macro dilution tube method, in accordance with Rota et al., with modifications. Details of these assays are provided in the Supplemental Material. […]
(§3) 2.2. Determination of the minimum inhibitory concentration (MIC) and minimum bactericidal concentration
(§4) The MIC was determined using the macro dilution tube method, in accordance with Rota et al.
[5], with modifications. […]
(§5) The ABTS radical scavenging activity was determined according to the method described by Erel. Different concentrations of compounds 5a–d and 10 (10–500 μ M) were mixed with the ABTS+ solution, and the decrease in the absorbance at 734 nm was recorded.

[1] = test system: Bacillus cereus ATCC 11778; assay: MIC and MBC, macro dilution tube method
Text: as §1, §2, §3, §4
(§6) [5], with modifications. The tested concentrations were 20, 18, 15, 12, 10, 7 and 5 μL.mL‐1 of each compound. In a tube with 1 mL of MH broth, was inoculated 105 UFC.mL‐1, the compound in a predetermined concentration and, to facilitate the solubility, 2 drops of TWEEN 80. The mixture was incubated at 37 °C for 24 h under stirring (150 rpm). As the positive control, MH broth and inoculum concentration in 105 UFC.mL‐1 and as the negative control MH, the inoculum concentration in 105 UFC∙mL‐1 and streptomycin (10 μg) were used. MIC was defined as the lowest concentration of […]
(§7) After 24 h, tubes with no visible growth were seeded in a […] TSA‐YE tube and incubated at 37 °C for 24 h. The MBC is the lowest concentration of compound where 99.9% of the initially inoculated cells were killed. […]
(§8) 2.4. Radical Scavenging Activity […]
as §5

[2] = test system: Salmonella Typhimurium ATCC 14028; assay: MIC and MBC, macro dilution tube method; conditions: S. Typhimurium; for MBC: 10^5 CFU.mL^−1; for MIC: 10^5 CFU.mL^−1, 24 h
Text: as §1, §2, §3, §4, §6, §7, §8, §5

[3] = test system: Pseudomonas aeruginosa ATCC 15442; assay: MIC and MBC, macro dilution tube method; conditions: P. aeruginosa; for MBC: 10^5 CFU.mL^−1
Text: as §1, §2, §3, §4, §6, §7, §8, §5

[4] = B. mereus (so in the source), 10^5 CFU.mL^−1
[5] = B. mereus (so in the source), 10^5 CFU.mL^−1, 24 h

## CC(C)=CCCC(C)C/C=[N+](\C)[O-] (stereo not shown) [5d, (E)-N,3,7-trimethyloct-6-en-1-imine oxide]
All the tested bacteria
  MBC: 1130 to 1260 µM (≈ 207 to 231 µg/mL)
[1]; [4]
  MBC: >1.26 mM.mL^−1
[1]; [5]
  MIC: >1.26 mM.mL^−1

## CC(C)=CCCC(C)(C/C=[N+](\C)[O-])Sc1ccccc1 (stereo not shown) [5c, (E)-N,3,7-trimethyl-3-(phenylthio)oct-6-en-1-imine oxide]
All the tested bacteria
  MBC: 520 to 690 µM (≈ 152 to 201 µg/mL)
[1]; [4]
  MBC: 0.69 mM.mL^−1
[1]; [5]
  MIC: 0.69 mM.mL^−1
[2]
  MBC: >0.69 mM.mL^−1
  MIC: >0.69 mM.mL^−1
[3]
  MBC: 0.61 mM.mL^−1

## CC(C)=CCCC(C)C(/C=[N+](\C)[O-])Sc1ccccc1 (stereo not shown) [5a, (E)-N,3,7-Trimethyl-2-(phenylthio)oct-6-en-1-imine oxide]
[1]; [4]
  MBC: 0.59 mM.mL^−1
[1]; [5]
  MIC: 0.48 mM.mL^−1
[1]; Bacillus cereus, ATCC11778
  MBC: 590 µM (≈ 172 µg/mL)
[1]; Bacillus cereus, ATCC11778, read-out: minimal inhibitory concentration (MIC)
  MIC: 480 µM (≈ 140 µg/mL)

## CC(C)=CCC[C@@H](C)C(/C=N/O)[Se]c1ccccc1 (stereo partly drawn) [compound 10, (3R,E)-3,7-dimethyl-2-(phenylselanyl)oct-6-enal oxime]
[1]; [4]
  MBC: >0.70 mM.mL^−1
[1]; [5]
  MIC: >0.70 mM.mL^−1
[2]
  MBC: >0.70 mM.mL^−1
  MIC: >0.70 mM.mL^−1
[3]
  MBC: >0.70 mM.mL^−1
[3]; 10^5 CFU.mL^−1, 24 h
  MIC: >0.70 mM.mL^−1
